2 compounds from ChEMBL document CHEMBL1201862, “PubChem BioAssay data set” (2004) can be followed below.

Among the test systems are UO-31; K562; SK-MEL-28; DMS-114; SR; SNB-78; COLO 205; NCI/ADR-RES; HCT-116; DU-145; RXF 393; PC-3; T47D; SF-268; UACC-257; MCF7; UACC-62; 786-0; SNB-19; CCRF-CEM.
Common to all, as to experiment: DTP human tumour cell line panel, 48 h

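Test compounds were applied to cells in 96-well plates for 48 hours at 5 doses. GI50 marks 50% less growth.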 Calls of active or inactive are those of the source. Cut-off read from the data, not from the text of the source: active = GI50 up to about 1.1 µM and inactive = higher.

Consider `CCCCC(=O)OC[n+]1ccc2c(C)c3[nH]c4ccc(OC)cc4c3c(C)c2c1`, for which the 50% growth inhibitory concentration (GI50) in the assay on UO-31 is 1.04 µM (active); in the assay on K562, 0.0702 µM (active); in the assay on SK-MEL-28, 1.32 µM (inactive); with DMS-114 it was 0.705 µM (active); with SR it was 0.0506 µM (active); in the assay with SNB-78, 1.18 µM (inactive). Besides, the GI50 in the assay on COLO 205 was 0.267 µM (active); in the assay on NCI/ADR-RES, 0.234 µM (active); in the assay on HCT-116, 0.0718 µM (active); with DU-145, 0.76 µM (active); with RXF 393, 0.929 µM (active); in the assay on PC-3, 0.308 µM (active). In addition, the GI50 is 1.03 µM (active) in the assay with T47D; 0.344 µM (active) in the assay on SF-268; 2.13 µM (inactive) with UACC-257; 0.168 µM (active) with MCF7; 0.979 µM (active) in the assay with UACC-62; 0.118 µM (active) in the assay with 786-0. Moreover, the GI50 with SNB-19 is 0.364 µM (active); with CCRF-CEM, 0.0684 µM (active).

As for `C=CC(=O)c1ccc2c(c1)OCCOCCOCCOCCOCCO2`, the GI50 is 26.2 µM (inactive) in the assay on UO-31; 35.6 µM (inactive) with K562; 18.7 µM (inactive) in the assay on SK-MEL-28; 19.3 µM (inactive) with DMS-114; > 100 µM (inactive) in the assay with SR; 17.7 µM (inactive) with SNB-78. Also, the GI50 was 17.7 µM (inactive) with COLO 205; 25.3 µM (inactive) with NCI/ADR-RES; 25.9 µM (inactive) in the assay with HCT-116; > 100 µM (inactive) in the assay on DU-145; 17.2 µM (inactive) in the assay with RXF 393; 30.9 µM (inactive) with PC-3. The GI50 in the assay with T47D is 29.3 µM (inactive); in the assay on SF-268, > 55.6 µM (inactive); in the assay on UACC-257, 19.1 µM (inactive); in the assay with MCF7, 16 µM (inactive); with UACC-62 it was 30.3 µM (inactive); in the assay with 786-0, 16.1 µM (inactive). For the same compound, the figures for the GI50 in the assay on SNB-19 and in the assay with CCRF-CEM were > 100 µM (inactive) and > 27.5 µM (inactive), respectively.
